Assay results published in US8288441B2, “Compositions comprising a physiological coolant” (Givaudan Nederland Services B.V., priority 2007, dated 2012).

Test system: forearm skin
Experiment: Perception of cooling after applying aqueous ethanol solutions to the forearms of volunteers
Format: in vivo, human
Source text: A simple aqueous ethanol solution (50:50) containing 1% by weight of lactoyl ethanolamide was applied to one forearm. The aqueous ethanol solution alone (control) was then applied to the other forearm at a similar dosage, and the perception of cooling from either arm noted. This was repeated on 10 volunteers in total.
(§1) A simple aqueous ethanol solution (50:50) containing 0.2% by weight of L-menthol and 1% by weight of lactoyl ethanolamide was applied to one forearm at a concentration of 2 drops per 10 square centimetres of skin. The aqueous ethanol solution containing just 0.2% by weight L-menthol was then applied to the other forearm at the same dose, and the perception of cooling from either arm noted. This was repeated on 10 volunteers.
as §1, with “and 0.5%” for “and 1%”, “containing” for “containing just”, “arm noted over 4 hours at 30 minute intervals.” for “arm noted.”, “on 12” for “on 10”
as §1, with “containing 1%” for “containing 0.2%”, “of menthyl lactate” for “of L-menthol”, “containing 1%” for “containing just 0.2%”, “weight menthyl lactate” for “weight L-menthol”, “arm noted over 4 hours at 30 minute intervals.” for “arm noted.”, “on 12” for “on 10”
as §1, with “1.0%” for “0.2%”, “menthone glyceryl ketal” for “L-menthol”, “0.5%” for “1%”, “1%” for “just 0.2%”, “noted over 4 hours at 1 hour intervals.” for “noted.”
(§2) A simple aqueous ethanol solution (50:50) containing 0.75% by weight of menthyl glyceryl ether and 0.5% by weight of lactoyl ethanolamide was applied to one forearm at a concentration of 2 drops per 10 square centimetres of skin. An aqueous ethanol solution containing 1% by weight menthyl glyceryl ether was then applied to the other forearm at the same dose, and the perception of cooling from either arm noted over a 4 hour period. This was repeated on 12 volunteers.
as §2, with “1%” for “0.75%”, “pyrrolidone carboxylate” for “glyceryl ether”, “dose” for “dose,”, “6” for “4”, “33” for “12”

[1] = Example 7, 1% menthyl pyrrolidone carboxylate + 0.5% lactoyl ethanolamide vs 1% menthyl pyrrolidone carboxylate alone, 6 hour period, 33 volunteers

CC(C)[C@@H]1CC[C@@H](C)C[C@H]1O [L-menthol]
period of time over which cooling was felt (Example 3, 0.2% L-menthol with or without 0.5% lactoyl ethanolamide, noted over 4 hours at 30 minute intervals, 12 volunteers): about 2 hours

CC(O)C(=O)NCCO (stereo not shown) [lactoyl ethanolamide, N-lactoyl ethanolamide]
cooling perception versus placebo solution (Example 1, 1% by weight lactoyl ethanolamide in aqueous ethanol (50:50) vs aqueous ethanol alone, other forearm, 10 volunteers): no difference in cooling perception | cooling perception versus coolant alone (Example 2, 0.2% L-menthol + 1% lactoyl ethanolamide vs 0.2% L-menthol alone, 2 drops per 10 square centimetres, 10 volunteers): higher cooling perception | level of cooling versus coolant alone [1]: higher level of cooling | time for which the improved cooling perception was sustained [1]: at least 6 hours

CC1CCC(C(C)C)C2(C1)OCC(CO)O2 (stereo not shown) [menthone glyceryl ketal]
period of time over which cooling was felt (Example 5, 1% menthone glyceryl ketal with or without 0.5% lactoyl ethanolamide, noted over 4 hours at 1 hour intervals, 10 volunteers): about 3 hours

CC1CCC(C(C)C)C(OC(=O)C(C)O)C1 (stereo not shown) [menthyl lactate]
period of time over which cooling was felt (Example 4, 1% menthyl lactate with or without 1% lactoyl ethanolamide, noted over 4 hours at 30 minute intervals, 12 volunteers): about 2 hours
